# According to ChEMBL document CHEMBL4651402, “Screening of ~5500 FDA-approved drugs and clinical candidates for anti-SARS-CoV-2 activity” (2021):
# Test system: SARS-CoV-2
# Experiment: microbe, parasite or virus in culture
# Conditions: Severe acute respiratory syndrome coronavirus 2, Vero C1008, 48 h
SMILES,IC50 [µM],IC50 (read-out: pIC50 (converted)) [µM]
NCCCCN [PUTRESCINE],> 20,> 20
CC1NCCOC1c1ccccc1 (stereo not given) [PHENMETRAZINE],> 20,> 20
CN1C(=O)CC[C@H]1c1cccnc1 [COTININE],> 20,> 20
NCCCC[C@H](NC(=O)[C@@H](Cc1cc(Br)c(O)c(Br)c1)NC(=O)N1CCC(N2Cc3ccccc3NC2=O)CC1)C(=O)N1CCN(c2ccncc2)CC1 [OLCEGEPANT],> 20,> 20
COc1cc2c(cc1OC)C(C)N(CCc1ccc(N)cc1)CC2 (stereo not given) [VERADOLINE],> 20,> 20
CCN(CC)CC#CCOC(=O)[C@](O)(c1ccccc1)C1CCCCC1 [AROXYBUTYNIN],> 20,> 20
NCC(CC(=O)O)c1ccccc1 (stereo not given) [PHENIBUT],> 20,> 20
COC(=O)C[C@](O)(CCCC(C)(C)O)C(=O)O[C@@H]1C(OC)=C[C@]23CCCN2CCc2cc4c(cc2[C@H]13)OCO4 [OMACETAXINE MEPESUCCINATE],> 20,> 20
Cc1cc(CCCOc2c(C)cc(-c3noc(C(F)(F)F)n3)cc2C)on1 [PLECONARIL],> 20,> 20
N[C@@H]1c2cccnc2[C@H](OC(=O)N2CCC(n3c(=O)[nH]c4ncccc43)CC2)CC[C@H]1c1cccc(F)c1F [RIMEGEPANT],> 20,> 20
CC(=O)OCC(=O)[C@@]1(O)CCC2C3CCC4=CC(=O)CC[C@]4(C)C3=CC[C@@]21C (stereo not given in full),> 20,> 20
CC1(C)CCC(C)(C)c2cc(NC(=O)c3ccc(C(=O)O)cc3)ccc21 [TAMIBAROTENE],> 20,> 20
O=C(OC1Cc2c(O)cc(O)cc2O[C@@H]1c1ccc(O)c(O)c1)c1cc(O)c(O)c(O)c1 (stereo not given in full),> 20,> 20
CC(C)=CCC/C(C)=C/CC/C(C)=C/CSc1ccccc1C(=O)O [SALIRASIB],> 20,> 20
COCCc1ccc(OCC(O)CNC(C)C)cc1 (stereo not given) [METOPROLOL],> 20,> 20
CC1(C)[C@@H](OC(=O)CCC(=O)O)CC[C@]2(C)[C@H]3C(=O)C=C4[C@@H]5C[C@@](C)(C(=O)O)CC[C@]5(C)CC[C@@]4(C)[C@]3(C)CC[C@@H]12 [CARBENOXOLONE],> 20,> 20
OC1CCCCC1N1CCC(c2ccccc2)CC1 (stereo not given),> 20,> 20
NCC(=O)CCC(=O)O [AMINOLEVULINIC ACID],> 20,> 20
CN(C)Cc1c(C(=O)NCCOc2ccc(C(=O)NO)cc2)oc2ccccc12 [ABEXINOSTAT],> 20,> 20
CN[C@H](CC(C)C)C(=O)N[C@H]1C(=O)N[C@@H](CC(N)=O)C(=O)N[C@H]2C(=O)N[C@H]3C(=O)N[C@H](C(=O)N[C@H](C(=O)O)c4cc(O)cc(O)c4-c4cc3ccc4O)[C@H](O[C@H]3C[C@](C)(N)[C@@H](O)[C@H](C)O3)c3ccc(c(Cl)c3)Oc3cc2cc(c3O[C@@H]2O[C@H](CO)[C@@H](O)[C@H](O)[C@H]2O[C@H]2C[C@](C)(NCc3ccc(-c4ccc(Cl)cc4)cc3)[C@@H](O)[C@H](C)O2)Oc2ccc(cc2Cl)[C@H]1O [ORITAVANCIN],> 20,> 20

SMILES,IC50 [µM],IC50 (read-out: pIC50 (converted)) [µM]
Fc1ccc2[nH]c3c(c2c1)CN(CCCc1cccnc1)CC3 [GEVOTROLINE],> 20,> 20
NS(=O)(=O)c1cc2c(cc1Cl)NC(C(Cl)Cl)NS2(=O)=O (stereo not given) [TRICHLORMETHIAZIDE],> 20,> 20
COc1ccc(C2CNC(=O)C2)cc1OC1CCCC1 (stereo not given) [ROLIPRAM],> 20,> 20
CC(=O)OC[C@H]1O[C@@H](S)[C@H](OC(C)=O)[C@@H](OC(C)=O)[C@@H]1OC(C)=O,> 20,> 20
CC(=O)C1CCC2C3CCC4=CC(=O)CCC4(C)C3C(O)CC12C (stereo not given),> 20,> 20
N=C(N)NN [PIMAGEDINE],> 20,> 20
CNCC(O)c1ccc(OC(=O)C(C)(C)C)c(OC(=O)C(C)(C)C)c1 (stereo not given) [DIPIVEFRIN],> 20,> 20
O=C1c2cc(Cl)ccc2OC2CCON12 (stereo not given) [SECLAZONE],> 20,> 20
COc1ccc(-c2cc(=O)c3c(O)cc(O)cc3o2)cc1O [DIOSMETIN],> 20,> 20
CCOP(=O)(Cc1ccc(-c2nc3ccccc3s2)cc1)OCC [FOSTEDIL],> 20,> 20
CCCCCCCCCCCC(=O)O [DODECANOATE],> 20,> 20
CCCCCCCCCCCCCCCC(=O)OCC(O)C1OC(=O)C(O)=C1O (stereo not given),> 20,> 20
O=P(O)(O)OC[C@H]1OC(O)[C@H](O)[C@@H](O)[C@@H]1O (stereo not given in full),> 20,> 20
C[C@]1(c2nc3c(C(N)=O)cccc3[nH]2)CCCN1 [VELIPARIB],> 20,> 20
C[C@]1(O)C[C@@H](c2nc(-c3ccc4ccc(-c5ccccc5)nc4c3)c3c(N)nccn32)C1 [LINSITINIB],> 20,> 20
CC(CN1CCOCC1)C(C(=O)N1CCCC1)(c1ccccc1)c1ccccc1 (racemic) [RACEMORAMIDE],> 20,> 20
COc1ccc2c3c1O[C@H]1[C@@H](OC(C)=O)C=C[C@H]4[C@@H](C2)N(C)CC[C@@]341,> 20,> 20
CCOc1cc2ncc(C#N)c(Nc3ccc(F)c(Cl)c3)c2cc1NC(=O)/C=C/CN(C)C [PELITINIB],> 20,> 20
CC[C@@H]1C(=O)OC[C@@H]1Cc1cncn1C [PILOCARPINE],> 20,> 20
C[N+]1(C)CCC(OC(=O)C(O)(c2ccccc2)c2ccccc2)CC1 [PARAPENZOLATE],> 20,> 20

SMILES,IC50 [µM],IC50 (read-out: pIC50 (converted)) [µM]
NC(=O)c1[nH]cnc1O,> 20,> 20
COc1cc(Nc2c(C#N)cnc3cc(OCCCN4CCN(C)CC4)c(OC)cc23)c(Cl)cc1Cl [BOSUTINIB],> 20,> 20
C[C@H]1c2cccc(O)c2C(=O)C2=C(O)[C@]3(O)C(=O)C(C(N)=O)=C(O)[C@@H](N(C)C)[C@@H]3[C@@H](O)[C@@H]21 [DOXYCYCLINE],> 20,> 20
CC(C)C(=O)c1c(C(C)C)nn2ccccc12 [IBUDILAST],> 20,> 20
CC(C)NC(=O)COc1cccc(-c2nc(Nc3ccc4[nH]ncc4c3)c3ccccc3n2)c1 [BELUMOSUDIL],> 20,> 20
CN(C)CCc1c[nH]c2ccccc12,> 20,> 20
N[C@H](Cc1ccc(F)cc1)C(=O)O,> 20,> 20
COC1=C(OC)C(=O)C(CCCCCCCCCCO)=C(C)C1=O [IDEBENONE],> 20,> 20
N[C@@H](Cc1ccc(N(CCCl)CCCl)cc1)C(=O)O,> 20,> 20
Cc1cc(-n2c(=O)[nH]c(=O)n(C)c2=O)ccc1Oc1ccc(SC(F)(F)F)cc1 [TOLTRAZURIL],> 20,> 20
CO/N=C(\C(=O)N[C@@H]1C(=O)N2C(C(=O)O)=C(C[N+]3(C)CCCC3)CS[C@H]12)c1csc(N)n1,> 20,> 20
CC(C)(S)[C@@H](N)C(=O)O [PENICILLAMINE],> 20,> 20
C[C@]12C=CC(=O)C=C1CC[C@H]1[C@@H]3C[C@@H](O)[C@](O)(C(=O)CO)[C@@]3(C)C[C@H](O)[C@@]12F [TRIAMCINOLONE],> 20,> 20
"CCCn1c(=O)c2[nH]c(C3CCCC3)nc2n(CCC)c1=O [1,3-DIPROPYL-8-CYCLOPENTYLXANTHINE [DPCPX]]",> 20,> 20
Cc1cccc(C)c1NC(=O)NCCCNC(C)C,> 20,> 20
CCC(=O)OCC(=O)[C@@]1(OC(=O)CC)C(C)CC2C3CCC4=CC(=O)C=CC4(C)[C@@]3(Cl)C(O)CC21C (stereo not given in full),> 20,> 20
Clc1ccc(CSC(Cn2ccnc2)c2ccc(Cl)cc2Cl)cc1 (stereo not given) [SULCONAZOLE],> 20,> 20
CNC(=O)c1nnc(NC(=O)C2CC2)cc1Nc1cccc(-c2ncn(C)n2)c1OC [CRAVACITINIB],> 20,> 20
CC(CCC(=O)NCCS(=O)(=O)O)C1CCC2C3C[C@H](O)[C@@H]4C[C@H](O)CC[C@]4(C)C3CC[C@]12C (stereo not given in full),> 20,> 20
CN1CC[C@@]2(C)c3cc(O)ccc3N(C)[C@H]12,> 20,> 20
